These results are taken from patent publication US10875876B2, “Cyclized sulfamoylarylamide derivatives and the use thereof as medicaments for the treatment of hepatitis B” (priority 2015, dated 2020).

Molecules are shown by their SMILES. Read-outs that look alike come from different tables or passages of the source. Some results are limits rather than exact numbers.

The test system of one series is HBV. Put plainly: anti HBV activity, HepG2.117 cell line, intracellular HBV DNA by realtime PCR. It is filed as cell-based. To be noted: HepG2.117 cell line (Tet-off), 3 days of treatment, intracellular HBV DNA quantified by realtime PCR; read-out: HBV-AVE-HepG2.117 EC50. In outline:
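Readout was intracellular HBV DNA by real-time PCR (HBV-specific primers and probe) after 3 days of compound exposure. Serial dilutions were tested in duplicate on HepG2.117 cells, a stable inducible HBV producer in which replication is switched on when doxycycline is absent.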

The subject of series [1] is HepG2 cells.
The subject of series [2] is HepG2 cells. Put plainly: Cytotoxicity in HepG2 cells, Resazurin assay. The note with it: read-out: TOX-HepG2-4 d CC50; HepG2 cells incubated for 4 days, viability by Resazurin assay.
For series [3] the following is noted: from C=CCCCCC(C)NS(=O)(=O)c1cn(C)c(C(=O)OC)c1CC=C; rcm bond; Grubbs catalyst 2nd generation; DCE; 3.4 mM; 80.0 °C; 2.0 h.

With `C[C@@H](N1CCCCc2c(cn(C)c2C(=O)Nc2ccc(F)c(F)c2)S1(=O)=O)C(F)(F)F` [Compound 4, N-(3,4-difluorophenyl)-8-methyl-1,1-dioxo-2-[(1R)-2,2,2-trifluoro-1-methyl-ethyl]-3,4,5,6-tetrahydropyrrolo[3,4-g]thiazocine-7-carboxamide], the EC50 in the series with HBV worked out at 1.09 µM. Further, the CC50 in the series on HepG2 cells [1] was over 25 µM.
With `CC1C=Cc2c(cn(C)c2C(=O)Nc2ccc(F)c(F)c2)S(=O)(=O)N1` (single isomer, unassigned) [Compound 7b, N-(3,4-difluorophenyl)-3,7-dimethyl-1,1-dioxo-2,3-dihydropyrrolo-[3,4-f]thiazepine-6-carboxamide], the CC50 in the series with HepG2 cells [2] was over 25 µM. Besides, the EC50 in the series on HBV stood at 0.007 µM.
As to `Cn1cc2c(c1C(=O)Nc1ccnc(Cl)c1)OCC(C)(CO)NS2(=O)=O` (single isomer, unassigned) [Compound 204b, N-(2-chloro-4-pyridyl)-3-(hydroxymethyl)-3,7-dimethyl-1,1-dioxo-2,4-dihydropyrrolo[3,4-b][1,4,5]oxathiazepine-6-carboxamide], the CC50 in the series with HepG2 cells [2] is over 25 µM. The half-maximal effective concentration (EC50) in the series on HBV is over 0.125 µM.
Take `Cn1cc2c(c1C(=O)Nc1ccc(F)c(F)c1)OCC(C)(c1ncccn1)NS2(=O)=O` (single isomer, unassigned) [Compound 153b, N-(3,4-difluorophenyl)-3,7-dimethyl-1,1-dioxo-3-pyrimidin-2-yl-2,4-dihydropyrrolo[3,4-b][1,4,5]oxathiazepine-6-carboxamide]: in the series with HepG2 cells [2], the CC50 was over 25 µM. For the same compound, the EC50 with HBV was found to be 0.06 µM.
As for `Cn1cc2c(c1C(=O)Nc1ccnc(C(F)F)c1)OCC(C)(CO)NS2(=O)=O` (single isomer, unassigned) [Compound 215b, N-[2-(difluoromethyl)-4-pyridyl]-3-(hydroxymethyl)-3,7-dimethyl-1,1-dioxo-2,4-dihydropyrrolo[3,4-b][1,4,5]oxathiazepine-6-carboxamide], the CC50 with HepG2 cells [2] is over 25 µM. Moreover, the 50% effective concentration (EC50) in the series on HBV is over 0.125 µM.
For `Cn1cc2c(c1C(=O)Nc1ccc(F)c(Cl)c1)OC[C@H](C(O)C1CC1)NS2(=O)=O` (single isomer, unassigned) [Compound 207b, N-(3-chloro-4-fluoro-phenyl)-3-[cyclopropyl(hydroxy)methyl]-7-methyl-1,1-dioxo-3,4-dihydro-2H-pyrrolo[3,4-b][1,4,5]oxathiazepine-6-carboxamide], the CC50 with HepG2 cells [2] was over 25 µM. Moreover, in the series on HBV, the EC50 worked out at 0.005 µM.
Consider `Cc1cccc(C2(C)COc3c(cn(C)c3C(=O)Nc3ccc(F)c(F)c3)S(=O)(=O)N2)n1` (single isomer, unassigned) [Compound 168b, N-(3,4-difluorophenyl)-3,7-dimethyl-3-(6-methyl-2-pyridyl)-1,1-dioxo-2,4-dihydropyrrolo[3,4-b][1,4,5]oxathiazepine-6-carboxamide], for which, in the series with HepG2 cells [2], the CC50 is over 25 µM. In the series on HBV, the EC50 turned out to be 0.015 µM.
In the same order, the values of `Cn1cc2c(c1C(=O)Nc1ccc(F)c(C#N)c1)CCC(C(F)(F)F)NS2(=O)=O` (single isomer, unassigned) [Compound 60b, N-(3-cyano-4-fluoro-phenyl)-7-methyl-1,1-dioxo-3-(trifluoromethyl)-2,3,4,5-tetrahydropyrrolo[3,4-f]thiazepine-6-carboxamide] are over 25 µM and 0.005 µM.
For `Cn1cc2c(c1C(=O)Nc1ccc(F)c(F)c1)OCC(C)(CO)NS2(=O)=O` (single isomer, unassigned) [Compound 203b, N-(3,4-difluorophenyl)-3-(hydroxymethyl)-3,7-dimethyl-1,1-dioxo-2,4-dihydropyrrolo[3,4-b][1,4,5]oxathiazepine-6-carboxamide], the CC50 with HepG2 cells [2] was over 25 µM. Moreover, the EC50 with HBV amounted to 0.059 µM.
Take `Cc1cc(NC(=O)c2c3c(cn2C)S(=O)(=O)N[C@@H](C(O)C2CC2)CO3)ccc1F` (single isomer, unassigned) [Compound 206b, 3-[cyclopropyl(hydroxy)methyl]-N-(4-fluoro-3-methyl-phenyl)-7-methyl-1,1-dioxo-3,4-dihydro-2H-pyrrolo[3,4-b][1,4,5]oxathiazepine-6-carboxamide]: the CC50 with HepG2 cells [2] was over 25 µM. Further, in the series with HBV, the EC50 was determined as 0.012 µM.
For `Cc1cc(CC2(C)COc3c(cn(C)c3C(=O)Nc3ccnc(Cl)c3)S(=O)(=O)N2)no1` (single isomer, unassigned) [Compound 213b, N-(2-chloro-4-pyridyl)-3,7-dimethyl-3-[(5-methylisoxazol-3-yl)methyl]-1,1-dioxo-2,4-dihydropyrrolo[3,4-b][1,4,5]oxathiazepine-6-carboxamide] the same measures were over 25 µM and 0.016 µM.
For `Cn1cc2c(c1C(=O)Nc1ccc(F)c(C(F)F)c1)CCC(C(C)(C)O)NS2(=O)=O` (single isomer, unassigned) [Compound 150b, N-[3-(difluoromethyl)-4-fluoro-phenyl]-3-(1-hydroxy-1-methyl-ethyl)-7-methyl-1,1-dioxo-2,3,4,5-tetrahydropyrrolo[3,4-f]thiazepine-6-carboxamide] the same measures were over 25 µM and 0.005 µM.
With `CC1CCn2c(C(=O)Nc3ccc(F)c(F)c3)nc(Br)c2S(=O)(=O)N1` (stereo not drawn) [compound 245], the half-maximal cytotoxic concentration (CC50) with HepG2 cells [2] is over 25 µM. In addition, in the series on HBV, the EC50 was over 25 µM.
Take `C[C@@H]1NS(=O)(=O)c2cn(C)c(C(=O)Nc3ccc(F)c(F)c3)c2O[C@@H]1C` [compound 228]: the CC50 with HepG2 cells [2] was over 25 µM. Besides, the EC50 with HBV is over 0.5 µM.
Take `Cc1cc(CC2(C)COc3c(cn(C)c3C(=O)Nc3ccc(F)c(C#N)c3)S(=O)(=O)N2)no1` (single isomer, unassigned) [Compound 220b, N-(3-cyano-4-fluoro-phenyl)-3,7-dimethyl-3-[(5-methylisoxazol-3-yl)methyl]-1,1-dioxo-2,4-dihydropyrrolo[3,4-b][1,4,5]oxathiazepine-6-carboxamide]: the CC50 in the series on HepG2 cells [2] was over 25 µM. Besides, the EC50 with HBV was 0.034 µM.
In the case of `CC(NCC(F)(F)F)C1COc2c(cn(C)c2C(=O)Nc2ccc(F)c(C#N)c2)S(=O)(=O)N1` (single isomer, unassigned) [Compound 161c, N-(3-cyano-4-fluoro-phenyl)-7-methyl-1,1-dioxo-3-[1-(2,2,2-trifluoroethylamino)ethyl]-3,4-dihydro-2H-pyrrolo[3,4-b][1,4,5]oxathiazepine-6-carboxamide], the CC50 in the series with HepG2 cells [2] was over 25 µM. Besides, the EC50 in the series on HBV was determined as 0.011 µM.
`COC(=O)c1c2c(cn1C)S(=O)(=O)NC(C)CCCC/C=C\C2` (stereo not drawn) had a ring closure, yield of all isomers in series [3] of 61.1%.
